Reference: ChEMBL document CHEMBL1201862, “PubChem BioAssay data set” (2004)
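Values below derive from 48-hour exposures of cells grown in 96-well plates, with endpoints linearly interpolated between the two concentrations bracketing the appropriate inhibition level. The concentration for 50% growth inhibition is given as GI50.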 Activity calls are given as the source filed them. Cut-off read from the data, not from the text of the source: active = GI50 up to about 1.1 µM and inactive = higher.

Experiments:
Test in all cases: NCI tumour cell line growth inhibition, 48 h
CAKI-1 = tested on: CAKI-1
CCRF-CEM = tested on: CCRF-CEM
EKVX = tested on: EKVX
HCT-15 = tested on: HCT-15
HL-60 = tested on: HL-60
HOP-92 = tested on: HOP-92
HT-29 = tested on: HT-29
Malme-3M = tested on: Malme-3M
NCI-H23 = tested on: NCI-H23
OVCAR-3 = tested on: OVCAR-3
SF-295 = tested on: SF-295
SF-539 = tested on: SF-539
SK-MEL-28 = tested on: SK-MEL-28
SK-MEL-5 = tested on: SK-MEL-5
SNB-19 = tested on: SNB-19
SR = tested on: SR
UO-31 = tested on: UO-31
ACHN = tested on: ACHN
NCI-H460 = tested on: NCI-H460
NCI/ADR-RES = tested on: NCI/ADR-RES

Row | SMILES | GI50 (CAKI-1) | GI50 (CCRF-CEM) | GI50 (EKVX) | GI50 (HCT-15) | GI50 (HL-60) | GI50 (HOP-92) | GI50 (HT-29) | GI50 (Malme-3M) | GI50 (NCI-H23) | GI50 (OVCAR-3) | GI50 (SF-295) | GI50 (SF-539) | GI50 (SK-MEL-28) | GI50 (SK-MEL-5) | GI50 (SNB-19) | GI50 (SR) | GI50 (UO-31) | GI50 (ACHN) | GI50 (NCI-H460) | GI50 (NCI/ADR-RES)
1 | C1OC1C1CO1 (stereo not drawn) | > 100 µM (inactive) | 3.34 µM (inactive) | > 100 µM (inactive) | > 100 µM | 3.14 µM (inactive) | > 100 µM (inactive) | > 100 µM (inactive) | > 100 µM (inactive) | 18.1 µM (inactive) | 39.7 µM (inactive) | 10.3 µM (inactive) | 59.8 µM (inactive) | 51.8 µM (inactive) | 45.2 µM (inactive) | > 100 µM (inactive) | 3.88 µM (inactive) | > 100 µM (inactive) |  |  | 
2 | Cc1nc2c(nc1C)C(=O)c1cc(O)ccc1C2=O | > 100 µM (inactive) | 48.9 µM (inactive) | > 100 µM (inactive) | 36.9 µM | 31 µM (inactive) | > 100 µM (inactive) | 35.2 µM (inactive) | 20.5 µM (inactive) | > 100 µM (inactive) | 29.3 µM (inactive) | > 87.1 µM (inactive) | > 81.1 µM (inactive) | 98.4 µM (inactive) | 15.6 µM (inactive) | 99.1 µM (inactive) | 51.1 µM (inactive) | > 100 µM (inactive) | > 100 µM (inactive) | 38.2 µM (inactive) | 
3 | CCC(=O)N(O)C(C)(C)C | > 100 µM (inactive) | > 100 µM (inactive) |  | > 100 µM | > 100 µM (inactive) | > 100 µM (inactive) | > 100 µM (inactive) | > 100 µM (inactive) | > 100 µM (inactive) | > 100 µM (inactive) | > 100 µM (inactive) | > 100 µM (inactive) | > 100 µM (inactive) | > 100 µM (inactive) | > 100 µM (inactive) | > 100 µM (inactive) | > 100 µM (inactive) | > 100 µM (inactive) | > 100 µM (inactive) | 
4 | COc1cccc2c1CCc1ccccc1CC2=O | > 100 µM (inactive) | > 100 µM (inactive) | > 100 µM (inactive) | > 100 µM | > 100 µM (inactive) | > 100 µM (inactive) | > 100 µM (inactive) | > 100 µM (inactive) | > 100 µM (inactive) | > 100 µM (inactive) | > 100 µM (inactive) | > 100 µM (inactive) | > 100 µM (inactive) | > 100 µM (inactive) | > 100 µM (inactive) | > 100 µM (inactive) | > 100 µM (inactive) | > 100 µM (inactive) | > 100 µM (inactive) | 
5 | CNNC1=NS(=O)(=O)c2cc(C#N)c(Cl)cc2S1 | > 10 µM (inactive) | > 10 µM (inactive) | > 10 µM (inactive) | > 10 µM | > 10 µM (inactive) |  | > 10 µM (inactive) | > 10 µM (inactive) | > 10 µM (inactive) | > 10 µM (inactive) | > 10 µM (inactive) | > 10 µM (inactive) | > 10 µM (inactive) | > 10 µM (inactive) | > 10 µM (inactive) |  | 1.68 µM (inactive) | > 10 µM (inactive) | > 10 µM (inactive) | > 10 µM (inactive)
6 | COC(=O)C1(C(=O)OC)CC(=O)c2cc3c(cc2-c2c(cc(OC)c(OC)c2OC)C1)OCO3 | > 211 µM (inactive) | 173 µM (inactive) | > 211 µM (inactive) | 204 µM | 67.1 µM (inactive) | 26.8 µM (inactive) | > 211 µM (inactive) | > 211 µM (inactive) | > 211 µM (inactive) | 98.2 µM (inactive) | 80.4 µM (inactive) | > 211 µM (inactive) | > 211 µM (inactive) | 123 µM (inactive) | 55.3 µM (inactive) | 70.3 µM (inactive) |  | > 211 µM (inactive) | > 211 µM (inactive) | 
7 | CN(C)c1nc(N(C)C)n2nc(-c3ccccc3[N+](=O)[O-])nc2n1 | > 100 µM (inactive) | > 100 µM (inactive) | > 100 µM (inactive) | 16.3 µM | > 100 µM (inactive) | > 100 µM (inactive) | > 100 µM (inactive) | > 100 µM (inactive) | > 100 µM (inactive) | > 100 µM (inactive) | > 100 µM (inactive) | 33 µM (inactive) | > 100 µM (inactive) | > 100 µM (inactive) | > 100 µM (inactive) | > 100 µM (inactive) | > 100 µM (inactive) | > 100 µM (inactive) | 78.7 µM (inactive) | 
8 | Clc1ccc2c(Cl)ncnc2c1 | > 100 µM (inactive) | > 100 µM (inactive) | 63.4 µM (inactive) | > 100 µM | > 100 µM (inactive) | 85.7 µM (inactive) | > 100 µM (inactive) | > 100 µM (inactive) | > 100 µM (inactive) | > 100 µM (inactive) | > 100 µM (inactive) | > 100 µM (inactive) | > 100 µM (inactive) | > 100 µM (inactive) | > 100 µM (inactive) | > 100 µM (inactive) | > 100 µM (inactive) | > 100 µM (inactive) | > 100 µM (inactive) | 
9 | CCc1cccc(C(C)C)c1NC(=O)C(=O)C(Cc1nc2ccccc2nc1O)C(=O)OC (stereo not drawn) | > 100 µM (inactive) | 60.8 µM (inactive) | 5.19 µM (inactive) | > 100 µM | > 100 µM (inactive) | > 100 µM (inactive) | 95.3 µM (inactive) | > 100 µM (inactive) | > 100 µM (inactive) | > 100 µM (inactive) | > 100 µM (inactive) | > 100 µM (inactive) | > 100 µM (inactive) | > 100 µM (inactive) | > 100 µM (inactive) | 38.5 µM (inactive) | > 100 µM (inactive) | > 100 µM (inactive) | > 100 µM (inactive) | 
10 | CCOC(=O)C(CC/C=C\c1ccccc1)N1CCC[C@H]1C(=O)OC (stereo partly drawn) | > 100 µM (inactive) | 94.8 µM (inactive) | > 100 µM (inactive) |  | 35.8 µM (inactive) | > 100 µM (inactive) | > 100 µM (inactive) | > 100 µM (inactive) | > 100 µM (inactive) | > 100 µM (inactive) | > 100 µM (inactive) | > 100 µM (inactive) | > 100 µM (inactive) | > 100 µM (inactive) | > 100 µM (inactive) | 40 µM (inactive) | > 100 µM (inactive) | > 100 µM (inactive) | > 100 µM (inactive) | 
11 | COC1=CC(=O)[C@]2(C)[C@H](C1=O)C(C)[C@H]2c1ccc(OC)cc1 (stereo partly drawn) | > 100 µM (inactive) | > 100 µM (inactive) | > 100 µM (inactive) | > 100 µM | > 100 µM (inactive) | > 100 µM (inactive) | > 100 µM (inactive) | > 100 µM (inactive) | > 100 µM (inactive) | > 100 µM (inactive) | > 100 µM (inactive) | > 100 µM (inactive) | > 100 µM (inactive) | > 100 µM (inactive) | > 100 µM (inactive) | > 100 µM (inactive) | 82 µM (inactive) | > 100 µM (inactive) | > 100 µM (inactive) | 
